# Patent US20090029983A1, “NOVEL HETEROCYCLIC COMPOUNDS HAVING ANTI-HBV ACTIVITY” (priority 2005, published 2009)
# Tested on: HBV
# Test: HBV screening assay (viral DNA in baculovirus-HBV transduced HepG2 cells)
# Type: cell-based
# Settings: Hepatitis B virus, HepG2, 72 h, read-out: EC50 (antiviral activity), HBV-transduced HepG2 cells, three days with compound, viral DNA by ELISA
# Protocol: HepG2 cells were transduced using a baculovirus to deliver the HBV genome essentially as previously described (Delaney et al. in Hepatology 1998; 28: 1134-1146). Transduced cells were cultured in supplemented EMEM media with 10% fetal bovine serum in a 5% CO2 incubator at 37° C. for three days in the presence of test compounds. The cells were lysed in a buffer containing 0.5% NP-40 and […] proteinase K. A solid-phase hybridization was performed to capture the viral DNA and to label the target DNA with Digoxigenin-labeled DNA probes. The viral DNA was detected by ELISA, using horseradish peroxidase-conjugated anti-digoxigenin antibodies.
# The EC50 values were determined using ExcelFit software from the inhibition values of a titration curve for each compound. For CC50 determinations, the same titration of compounds was co-cultured with non-transduced HepG2 for three days under the conditions described above. The Promega CellTiter 96 Aqueous One Solution Cell Proliferation Assay was used to measure cell proliferation/viability. The CC50 values were determined using ExcelFit software from the inhibition values of the titration curve for each compound.
row,Structure (SMILES),EC50 [µM]
1,"NC(=O)c1sc2nc3c(c(-c4cccs4)c2c1N)CCCC3Cc1ccccc1 (stereo not shown) [Compound 64, 3-Amino-8-benzyl-4-thiophen-2-yl-5,6,7,8-tetrahydro-thieno[2,3-b]uinoline-2-carboxylic acid amide]",> 10
2,"CCCC1CCCc2c1nc1sc(C(N)=O)c(N)c1c2-c1cccs1 (stereo not shown) [Compound 65, 3-Amino-8-propyl-4-thiophen-2-yl-5,6,7,8-tetrahydro-thieno[2,3-b]quinoline-2-carboxylic acid amide]",1 to 10
3,"NC(=O)c1sc2nc3c(c(-c4cccs4)c2c1N)CCCC3c1ccccc1 (stereo not shown) [Compound 66, 3-Amino-8-phenyl-4-thiophen-2-yl-5,6,7,8-tetrahydro-thieno[2,3-b]quinoline-2-carboxylic acid amide]",1 to 10
4,"COc1cccc(C2CCCc3c2nc2sc(C(N)=O)c(N)c2c3-c2cccs2)c1 (stereo not shown) [Compound 67, 3-Amino-8-(3-methoxy-phenyl)-4-thiophen-2-yl-5,6,7,8-tetrahydro-thieno[2,3-b]quinoline-2-carboxylic acid amide]",> 10
5,"NC(=O)c1sc2nc3c(c(-c4cccs4)c2c1N)CCCC3C1CCCCC1 (stereo not shown) [Compound 68, 3-Amino-8-cyclohexyl-4-thiophen-2-yl-5,6,7,8-tetrahydro-thieno[2,3-b]quinoline-2-carboxylic acid amide]",> 10
6,"COC1CCCc2c1nc1sc(C(N)=O)c(N)c1c2-c1cccs1 (stereo not shown) [Compound 69, 3-Amino-8-methoxy-4-thiophen-2-yl-5,6,7,8-tetrahydro-thieno[2,3-b]quinoline-2-carboxylic acid amide]",< 1
7,"C=CCC1CCCc2c1nc1sc(C(N)=O)c(N)c1c2-c1cccs1 (stereo not shown) [Compound 70, 8-Allyl-3-amino-4-thiophen-2-yl-5,6,7,8-tetrahydro-thieno[2,3-b]quinoline-2-carboxylic acid amide]",1 to 10
8,"CCOC(=O)CC1CCCc2c1nc1sc(C(N)=O)c(N)c1c2-c1cccs1 (stereo not shown) [Compound 71, 3-Amino-8-carbethoxymethyl-4-thiophen-2-yl-5,6,7,8-tetrahydro-thieno[2,3-b]quinoline-2-carboxylic acid amide]",> 10
9,"CC1CCc2nc3sc(C(N)=O)c(N)c3c(-c3cccs3)c2C1 (stereo not shown) [Compound 72, 3-Amino-6-methyl-4-thiophen-2-yl-5,6,7,8-tetrahydro-thieno[2,3-b]quinoline-2-carboxylic acid amide]",> 10
10,"CCC1CCc2nc3sc(C(N)=O)c(N)c3c(-c3cccs3)c2C1 (stereo not shown) [Compound 73, 3-Amino-6-ethyl-4-thiophen-2-yl-5,6,7,8-tetrahydro-thieno[2,3-b]quinoline-2-carboxylic acid amide]",> 10
11,"CC1CCc2c(nc3sc(C(N)=O)c(N)c3c2-c2cccs2)C1 (stereo not shown) [Compound 74, 3-Amino-7-methyl-4-thiophen-2-yl-5,6,7,8-tetrahydro-thieno[2,3-b]quinoline-2-carboxylic acid amide]",> 10
12,"Cc1ccsc1-c1c2c(nc3sc(C(N)=O)c(N)c13)CCCC2=O [Compound 75, 3-Amino-4-(3-methyl-thiophen-2-yl)-5-oxo-5,6,7,8-tetrahydro-thieno[2,3-b]quinoline-2-carboxylic acid amide]",< 1
13,"NC(=O)c1sc2nc3c(c(-c4cccs4)c2c1N)C(=O)CCC3 [Compound 76, 3-Amino-4-(thiophen-2-yl)-5-oxo-5,6,7,8-tetrahydro-thieno[2,3-b]quinoline-2-carboxylic acid amide]",1 to 10
14,"NC(=O)c1sc2nc3c(c(-c4ccc(Cl)cc4)c2c1N)C(=O)CCC3 [Compound 77, 3-Amino-4-(4-chloro-phenyl)-5-oxo-5,6,7,8-tetrahydro-thieno[2,3-b]quinoline-2-carboxylic acid amide]",> 10
15,"NC(=O)c1sc2nc3c(c(-c4cccs4)c2c1N)CN(C(=S)Nc1ccccc1)C3 [Compound 79, 3-Amino-6-phenylthiocarbamoyl-4-thiophen-2-yl-6,7-dihydro-5H-1-thia-6,8-diaza-s-indacene-2-carboxylic acid amide]",> 10
16,"NC(=O)c1sc2nc3c(c(-c4cccs4)c2c1N)CN(C(=S)NCC1CCCO1)C3 (stereo not shown) [Compound 80, 3-Amino-6-[(tetrahydro-furan-2-ylmethyl)-thiocarbamoyl]-4-thiophen-2-yl-6,7-dihydro-5H-1-thia-6,8-diaza-s-indacene-2-carboxylic acid amide]",> 10
17,"NC(=O)c1sc2nc3c(c(-c4cccs4)c2c1N)CN(C(=S)NC1CCCC1)C3 [Compound 81, 3-Amino-6-cyclopentylthiocarbamoyl-4-thiophen-2-yl-6,7-dihydro-5H-1-thia-6,8-diaza-s-indacene-2-carboxylic acid amide]",1 to 10
18,"CCCCNC(=S)N1Cc2nc3sc(C(N)=O)c(N)c3c(-c3cccs3)c2C1 [Compound 82, 3-Amino-6-butylthiocarbamoyl-4-thiophen-2-yl-6,7-dihydro-5H-1-thia-6,8-diaza-s-indacene-2-carboxylic acid amide]",1 to 10
19,"Cc1ccc(NC(=S)N2Cc3nc4sc(C(N)=O)c(N)c4c(-c4cccs4)c3C2)cc1 [Compound 83, 3-Amino-4-thiophen-2-yl-6-p-tolylthiocarbamoyl-6,7-dihydro-5H-1-thia-6,8-diaza-s-indacene-2-carboxylic acidamide]",> 10
20,"COc1cccc(NC(=S)N2Cc3nc4sc(C(N)=O)c(N)c4c(-c4cccs4)c3C2)c1 [Compound 85, 3-Amino-6-(3-methoxy-phenylthiocarbamoyl)-4-thiophen-2-yl-6,7-dihydro-5H-1-thia-6,8-diaza-s-indacene-2-carboxylic acid amide]",> 10
21,"NC(=O)c1sc2nc3c(c(-c4cccs4)c2c1N)CN(C(=S)NCCCc1ccccc1)C3 [Compound 86, 3-Amino-6-(3-phenyl-propylthiocarbamoyl)-4-thiophen-2-yl-6,7-dihydro-5H-1-thia-6,8-diaza-s-indacene-2-carboxylic acid amide]",1 to 10
22,"NC(=O)c1sc2nc3c(c(-c4cccs4)c2c1N)CN(C(=S)Nc1cccc(C(F)(F)F)c1)C3 [Compound 87, 3-Amino-4-thiophen-2-yl-6-(3-trifluoromethyl-phenylthiocarbamoyl)-6,7-dihydro-5H-1-thia-6,8-diaza-s-indacene-2-carboxylic acid amide]",> 10
23,"NC(=O)c1sc2nc3c(c(-c4cccs4)c2c1N)CN(C(=S)Nc1ccc(F)cc1)C3 [Compound 88, 3-Amino-6-(4-fluoro-phenylthiocarbamoyl)-4-thiophen-2-yl-6,7-dihydro-5H-1-thia-6,8-diaza-s-indacene-2-carboxylic acid amide]",> 10
24,"NC(=O)c1sc2nc3c(c(-c4cccs4)c2c1N)CN(C(=S)Nc1cc(Cl)cc(Cl)c1)C3 [Compound 89, 3-Amino-6-(3,5-dichloro-phenylthiocarbamoyl)-4-thiophen-2-yl-6,7-dihydro-5H-1-thia-6,8-diaza-s-indacene-2-carboxylic acid amide]",> 10

# Same assay, conditions: read-out: EC50 (antiviral activity); HBV-transduced HepG2 cells, three days with compound, viral DNA by ELISA
row,Structure (SMILES),EC50 [µM]
1,"NC(=O)c1sc2nc3c(c(-c4cccs4)c2c1N)CN(C(=S)NCc1ccccc1)C3 [Compound 84, 3-Amino-6-benzylthiocarbamoyl-4-thiophen-2-yl-6,7-dihydro-5H-1-thia-6,8-diaza-s-indacene-2-carboxylic acid amide]",1 to 10
